Results as given in patent US20210379112A1, “STEM CELL THERAPY” (PLASTICELL LIMITED, priority 2018, published 2021).

Experiments:
UCB derived CD133+ cells = assay: Ex vivo expansion of umbilical cord blood CD133+ cells (flow cytometry, counting beads); format: cell-based, human; settings: for fold expansion of total nucleated cells (TNC) compared to cells grown in basal media / fold expansion of HSC compared to cells grown in basal media / fold expansion of HSC (Lin−, CD38−, CD34+, CD45RA−, CD133+, CD90+, CD49f+) above basal media containing cytokines: UCB cells; for fold expansion of total nucleated cells (TNC) compared to cells grown in basal media: 5 days culture, vs basal media with cytokines, WR1065 added 16-20 h before harvest; for fold expansion of HSC compared to cells grown in basal media / fold expansion of HSC (Lin−, CD38−, CD34+, CD45RA−, CD133+, CD90+, CD49f+) above basal media containing cytokines: 5 days; for fold expansion of HSC compared to cells grown in basal media: result in words, FIG. 7-12; for fold expansion of HSC (Lin−, CD38−, CD34+, CD45RA−, CD133+, CD90+, CD49f+) above basal media containing cytokines: scriptaid 1 μM, WR1065 100 μM, FIG. 3
Text: Human UCB units were collected with written informed pre-consent and ethical approval from Oxford and Berkshire National Research Ethical Committees and studies conducted with approval of the NHSBT research committee. UCB mononuclear cells (MNC) were isolated by density gradient centrifugation on lymphocyte separation medium 1077 (PAA Laboratories, Pasching, Austria; density<1.077 g/ml). CD133+ cells were isolated from the MNC with immunomagnetic beads (Miltenyi Biotec, Germany). After isolation, the cells were cryopreserved in 10% DMSO in FCS (fetal calf serum) and stored at −150° C. in aliquots of 1×10^5 cells/vial. Cells were analysed for the purity of the isolation with flow cytometry on a BD LSR II (BD Biosciences, CA) using CD34-APC, CD133-PE and the appropriate isotype controls (all Miltenyi Biotec). Bone marrow derived CD133+ cells were obtained commercially from Lonza and peripheral blood CD133+ cells were isolated using immunomagnetic beads as above from total peripheral blood mononuclear cells obtained commercially from Lonza Biologies.
Vials from 2 or 3 donors were thawed and pooled in StemSpan ACF media (Stem Cell Technologies) containing 100 ng/mL SCF, 100 ng/mL FLT3LG and 20 ng/mL TPO (all from Miltenyi Biotec). After counting, cells were plated in 96 well round bottom suspension plates at 20,000 cells/well in the above media. Cells were allowed to recover overnight in these conditions in a 37° C. humidified incubator with 5% CO2.
The next day cells were harvested from the plates counted, and seeded into 24 well Nanex plates (Compass Biomedical) or standard tissue culture treated plates at 2500 cells/well in 1 mL basal media (StemSpan ACF with 100 ng/mL SCF, 100 ng/mL FLT3LG and 20 ng/mL TPO) containing an HDAC inhibitor (for most experiments scriptaid was used at a concentration of 1 μM). An aliquot of cells was used for CFU analysis and another for flow cytometry analysis.
After 3 days in culture the media was either replaced or supplemented with fresh media with the cytokines (SCF, TPO and FLT3LG) and the HDAC inhibitors (scriptaid 1 μM). Sixteen to twenty hours prior to harvest WR1065 was added at a concentration of 100 μM. After total of 5 days in expansion, cells are harvested, counted and analysed by flow cytometry.
Cells were harvested, washed and stained in 3% FBS in PBS using a panel of pre-conjugated antibodies. Cells were incubated with antibodies on ice for 30 min, then washed twice in 3% FBS in PBS and resuspended in 250 uL of above buffer before being analysed using a BD Canto II flow cytometer. [Antibody panel was as follows: 5 Lin custom cocktail (CD235a, CD4, CD10, CD11b and CD19) APC-Vio770, CD38-PE-Vio770, CD34-PerCP-Vio700, CD133-PE, CD45RA-VioBlue, CD49f-FITC, CD90-APC (all from Miltenyi Biotec).]
Cell number was measured using flow cytometry with the aid of counting beads (CountBright beads Life Technologies).

[1] = tested on: bone marrow derived CD34+ cells; settings: pre-treatment of bone marrow derived CD34+ cells, in vitro; background; cited from earlier work
irradiated NSG mice = assay: Repopulation capacity of expanded cord blood cells in immuno-compromised NSG mice (secondary recipients); settings: secondary recipient mice, bled at week 8; mice received cord blood cells expanded ex vivo with the substance; FIG. 15
Protocol: The effect of different ex vivo expansion protocols on the ability of the cells to repopulate bone marrow in vivo was investigated. Cells were obtained from cord blood and four cell preparations were produced—1. Unexpanded cells, 2. Cells expanded in the presence of vehicle, 3. Cells expanded in the presence of scriptaid (expanded+SS—FIG. 15), 4. Cells expanded in the presence of scriptaid and WR1065 (expanded+SW—FIG. 15). These cell preparations were then injected into irradiated adult (<8 weeks) male NSG (NOD.Cg-Prkdc^scid II2rcf^Im1Wjl/SzJ) mice. Flow cytometry analysis was performed on blood samples taken at week 15 (CD45^hu & CD45^mu only) to identify animals with evidence of clear engraftment (human CD45+ cells in the blood at week 12, and week 15 human CD45+ count above 1%). Ten of the animals with human CD45+ count above 1%, were used as donors for 10 secondary recipients in one to one manner. At week 20 after cell administration the primary animals were sacrificed. Bone marrow samples were harvested from femurs and tibias and the cells were washed before being counted. 50% of the recovered cells were injected into secondary irradiated animals. In this manner the long term engraftment capabilities of the expanded cells could be determined. The secondary animals were bled at week 8 and whole blood samples analysed by FACs for evidence of engraftment. […]

[2] = UCB cells from three separate donors and a pooled sample, FIG. 13

Compound	fold expansion of total nucleated cells (TNC) compared to cells grown in basal media (UCB derived CD133+ cells)	fold expansion of HSC compared to cells grown in basal media (UCB derived CD133+ cells)	fold expansion of HSC (Lin−, CD38−, CD34+, CD45RA−, CD133+, CD90+, CD49f+) above basal media containing cytokines (UCB derived CD133+ cells)	also measured
Cc1cc(C)cc(C(=O)NOCCCCCC(=O)NO)c1 [LMK235]	slightly lower	significantly increased		
Nc1cc(F)ccc1NC(=O)/C=C/c1cnn(C/C=C/c2ccccc2)c1 [RGFP966]	increase	similar		
CN1CCc2c(c3ccccc3n2Cc2ccc(C(=O)NO)cc2)C1 [Tubastatin A]	similar	significantly increased		
NCCCNCCS [WR1065]			around 3 fold	enhancement of formation of CFU-GEMM and BFU-E colonies [1]: ≤ 38 fold
Cn1cc(CNCC2CCN(c3ncc(C(=O)NO)cn3)CC2)c2ccccc21 [quisinostat]	slightly lower	significantly increased		
O=C(CCCCCN1C(=O)c2cccc3cccc(c23)C1=O)NO [scriptaid]	slightly reduced		approximately 10 fold	fold expansion of HSC compared to cells cultured in basal media on different culture surfaces (UCB derived CD133+ cells; Nanex scaffolds, TC treated Corning 24 well plates, suspension Greiner Bio 24 well plates, effect similar across surfaces, FIG. 14): significantly increased; fold expansion of HSC compared to cells cultured on basal media, average (UCB derived CD133+ cells; [2]): 30 fold; fold expansion of HSC compared to cells cultured on basal media, range (UCB derived CD133+ cells; [2]): 10-55 fold; proportion of CD133+/CD34+ cells compared to cells grown on cytokines alone (UCB derived CD133+ cells; after 5 days in culture): increase; average frequency of human CD45+ cells in whole blood, percentage of viable singlets (irradiated NSG mice): 0.04%
